The Ki is the equilibrium dissociation constant of an inhibitor or competing ligand from its target.

In assay [1] the target is T1, human progesterone receptor-A [PRA] isoform (Homo sapiens, UniProt P06401).
T1 construct: host or cells: insect SF21 cells (baculovirus)
T1 sequence (P06401 1-769 isoform P06401-2): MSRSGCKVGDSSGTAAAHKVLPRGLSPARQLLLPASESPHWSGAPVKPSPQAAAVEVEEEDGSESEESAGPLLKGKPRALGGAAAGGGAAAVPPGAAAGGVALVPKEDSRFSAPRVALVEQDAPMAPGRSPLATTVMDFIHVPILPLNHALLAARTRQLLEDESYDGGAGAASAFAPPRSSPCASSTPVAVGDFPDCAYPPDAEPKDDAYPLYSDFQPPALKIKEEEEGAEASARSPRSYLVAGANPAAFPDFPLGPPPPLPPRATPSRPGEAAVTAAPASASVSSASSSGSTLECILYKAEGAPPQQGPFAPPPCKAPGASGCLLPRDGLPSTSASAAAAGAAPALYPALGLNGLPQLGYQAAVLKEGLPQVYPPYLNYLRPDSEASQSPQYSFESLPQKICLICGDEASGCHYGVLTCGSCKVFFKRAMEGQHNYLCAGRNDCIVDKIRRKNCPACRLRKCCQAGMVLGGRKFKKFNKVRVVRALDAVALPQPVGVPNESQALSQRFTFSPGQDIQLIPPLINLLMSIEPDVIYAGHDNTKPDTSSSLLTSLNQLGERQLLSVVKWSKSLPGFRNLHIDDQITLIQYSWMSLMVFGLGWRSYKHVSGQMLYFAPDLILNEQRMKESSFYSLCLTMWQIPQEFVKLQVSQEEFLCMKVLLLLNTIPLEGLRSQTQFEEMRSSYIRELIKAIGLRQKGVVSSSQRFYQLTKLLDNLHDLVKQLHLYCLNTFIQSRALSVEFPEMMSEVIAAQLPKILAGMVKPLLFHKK
The assay can be described thus: Radioligand binding with human progesterone receptor cytosol ([3H]-progesterone competition). As to conditions: read-out: Ki (nM) PR.

The target in assay [2] is T2, human glucocorticoid receptor-α [GRX] isoform (Homo sapiens, UniProt P04150).
T2 construct: host or cells: insect SF21 cells (baculovirus)
T2 sequence (P04150 1-777): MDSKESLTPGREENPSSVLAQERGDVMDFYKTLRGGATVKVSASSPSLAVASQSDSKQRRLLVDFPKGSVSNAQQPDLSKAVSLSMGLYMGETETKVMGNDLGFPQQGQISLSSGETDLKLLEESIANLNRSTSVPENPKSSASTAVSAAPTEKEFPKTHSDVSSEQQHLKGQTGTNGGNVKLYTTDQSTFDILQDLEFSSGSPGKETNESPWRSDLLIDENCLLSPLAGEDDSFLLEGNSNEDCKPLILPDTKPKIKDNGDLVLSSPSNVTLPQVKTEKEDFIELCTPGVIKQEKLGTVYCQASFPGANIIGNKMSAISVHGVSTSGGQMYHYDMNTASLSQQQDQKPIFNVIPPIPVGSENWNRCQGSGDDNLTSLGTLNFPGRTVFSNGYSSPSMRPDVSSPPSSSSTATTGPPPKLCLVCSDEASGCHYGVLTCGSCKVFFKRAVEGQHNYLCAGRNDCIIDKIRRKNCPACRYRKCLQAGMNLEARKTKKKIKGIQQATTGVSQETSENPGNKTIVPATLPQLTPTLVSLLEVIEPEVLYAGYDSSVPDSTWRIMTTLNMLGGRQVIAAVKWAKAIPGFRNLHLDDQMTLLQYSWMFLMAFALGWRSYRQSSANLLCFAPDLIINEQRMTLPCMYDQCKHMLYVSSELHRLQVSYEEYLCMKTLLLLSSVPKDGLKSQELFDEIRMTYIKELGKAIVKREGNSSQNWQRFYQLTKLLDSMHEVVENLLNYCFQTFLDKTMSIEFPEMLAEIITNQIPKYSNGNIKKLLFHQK
The assay is described as follows: Radioligand binding with human glucocorticoid receptor cytosol ([3H]-dexamethasone competition). The settings on record: read-out: Ki (nM) GR.

[3] abbreviates: PRA cytosol expressed in insect SF21 cells, [3H]Prog ~0.8 nM, 4° C. overnight, Ki by Cheng-Prusoff, KL ~4.5 nM.
[4] abbreviates: GRX cytosol expressed in insect SF21 cells, [3H]-Dex ~0.9 nM, 4° C. overnight, Ki by Cheng-Prusoff, KL ~[…].

Like-named read-outs stand apart in the source and are kept apart here.

For `COc1c(O)ccc2c1-c1ccc3c(c1C(c1cc(Cl)cc(Cl)c1)O2)C(C)=CC(C)(C)N3` (stereo not shown) [Example 416, 2,5-Dihydro-9-hydroxy-10-methoxy-2,2,4-trimethyl-5-(3,5-dichlorophenyl)-1H-[1]benzopyrano[3,4-f]quinoline], the results for the inhibition constant (Ki) in assay [1] (setting [3]) and in assay [2] (setting [4]) were 394 nM and 3.1 nM, respectively.

As for `CC1=C[C@@H]([C@@H]2Oc3ccc(O)c(Cl)c3-c3ccc4c(c32)C(C)=CC(C)(C)N4)CCC1` [Example 417, (−)(5S,3′S)2,5-Dihydro-9-hydroxy-10-chloro-2,2,4-trimethyl-5-(1-methylcyclohexen-3-yl)-1H-[1]benzopyrano[3,4-f]quinoline], the inhibition constant Ki in assay [1] (setting [3]) was determined as 10.5 nM; in assay [2] (setting [4]), 3 nM.

Regarding `CC1=C[C@H]([C@@H]2Oc3ccc(O)c(Cl)c3-c3ccc4c(c32)C(C)=CC(C)(C)N4)CCC1` [Example 418], the Ki in assay [1] (setting [3]) stood at 2.1 nM; in assay [2] (setting [4]), 1.4 nM.

Regarding `CC1=C[C@@H]([C@H]2Oc3ccc(O)c(Cl)c3-c3ccc4c(c32)C(C)=CC(C)(C)N4)CCC1` [Example 419, (+)(5R,3′S)2,5-Dihydro-9-hydroxy-10-chloro-2,2,4-trimethyl-5-(1-methylcyclohexen-3-yl)-1H-[1]benzopyrano[3,4-f]quinoline], the Ki in assay [1] (setting [3]) was 286 nM; in assay [2] (setting [4]), 56.9 nM.

Turning to `CC1=C[C@H]([C@H]2Oc3ccc(O)c(Cl)c3-c3ccc4c(c32)C(C)=CC(C)(C)N4)CCC1` [Example 420], the Ki in assay [1] (setting [3]) worked out at 2400 nM; in assay [2] (setting [4]), 125 nM.

As for `COc1c(OC(=O)CCC(=O)N(C)C)ccc2c1-c1ccc3c(c1C(C(C)C)O2)C(C)=CC(C)(C)N3` (stereo not shown) [Example 423, 2,5-Dihydro-9-(4-N,N-dimethylamino-4-oxo-butanoyloxy)-10-methoxy-2,2,4-trimethyl-5-(1-methylethyl)-1H-[1]benzopyrano[3,4-f]quinoline], the Ki in assay [1] (setting [3]) amounted to 8180 nM; in assay [2] (setting [4]), 0.67 nM.

Take `COc1c(OC(=O)CCC(=O)N(C)C)ccc2c1-c1ccc3c(c1C(Cc1ccccc1)O2)C(C)=CC(C)(C)N3` (stereo not shown) [Example 424, 2,5-Dihydro-9-(4-N,N-dimethylamino-4-oxo-butanoyloxy)-10-methoxy-5-(phenylmethyl)-2,2,4-trimethyl-1H-[1]benzopyrano[3,4-f]quinoline]: the results for the Ki in assay [1] (setting [3]) and in assay [2] (setting [4]) were 1950 nM and 0.84 nM, respectively.

Take `COc1c(OC(=O)CCC(=O)N(C)C)ccc2c1-c1ccc3c(c1C(c1cccs1)O2)C(C)=CC(C)(C)N3` (stereo not shown) [Example 425, 2,5-Dihydro-9-(4-N,N-dimethylamino-4-oxo-butanoyloxy)-10-methoxy-2,2,4-trimethyl-5-(2-thienyl)-1H-[1]benzopyrano[3,4-f]quinoline]: the inhibition constant Ki in assay [1] (setting [3]) came to 3940 nM; in assay [2] (setting [4]), 0.35 nM.

With `C=CCC1Oc2ccc(OC(=O)CCCN(C)C)c(OC)c2-c2ccc3c(c21)C(C)=CC(C)(C)N3` (stereo not shown) [Example 426, 2,5-Dihydro-9-(4-N,N-dimethylaminobutanoyloxy)-10-methoxy-2,2,4-trimethyl-5-(2-propenyl)-1H-[1]benzopyrano[3,4-f]quinoline], the Ki worked out at 110 nM in assay [1] (setting [3]) and 0.85 nM in assay [2] (setting [4]).

`C=CCC1Oc2ccc(OC(=O)NCC(=O)OCC)c(OC)c2-c2ccc3c(c21)C(C)=CC(C)(C)N3` (stereo not shown) [Example 427, 9-(2-Ethoxy-2-oxo-ethylaminocarbonyl)-oxy-10-methoxy-5-(3-propenyl)-2,2,4-trimethyl-1H-2,5-dihydro-[1]benzopyrano[3,4-f]quinoline]: the inhibition constant Ki was 2200 nM in assay [1] and 7.8 nM in assay [2].

On to `COc1c(O)ccc2c1-c1ccc3c(c1C(=Cc1ccccc1)O2)C(C)=CC(C)(C)N3` [Example 430, 9-Hydroxy-10-methoxy-5-(phenylmethylene)-2,2,4-trimethyl-1H-2,5-dihydro-[1]benzopyrano[3,4-f]quinoline], for which the Ki in assay [1] (setting [3]) amounted to 281 nM; in assay [2] (setting [4]), 4.8 nM.

Consider `C=CCC1Oc2ccc(OC(=S)N(C)C)c(OC)c2-c2ccc3c(c21)C(C)=CC(C)(C)N3` (stereo not shown) [Example 431, 9-(Dimethylaminothiocarbonyl)-oxy-10-methoxy-5-(3-propenyl)-2,2,4-trimethyl-1H-2,5-dihydro-[1]benzopyrano[3,4-f]quinoline], for which the Ki in assay [1] (setting [3]) was at least 10000 nM; in assay [2] (setting [4]), 113 nM.

As for `CC1=CC(C)(C)Nc2ccc3c(c21)C(c1cc(F)c(F)c(F)c1)Oc1ccc(O)c(Cl)c1-3` (stereo not shown) [Example 435, 2,5-Dihydro-9-hydroxy-10-chloro-2,2,4-trimethyl-5-(3,4,5-trifluorophenyl)-1H-[1]benzopyrano[3,4-f]quinoline], the results for the inhibition constant Ki in assay [1] (setting [3]) and in assay [2] (setting [4]) were 734 nM and 120 nM, respectively.

Regarding `C=CCC1Oc2ccc(OCSC)c(OC)c2-c2ccc3c(c21)C(C)=CC(C)(C)N3` (stereo not shown) [Example 436, 2,5-Dihydro-9-methylthiomethoxy-10-methoxy-2,2,4-trimethyl-5-allyl-1H-[1]benzopyrano[3,4-f]quinoline], the Ki amounted to 5920 nM in assay [1] (setting [3]) and 18.8 nM in assay [2] (setting [4]).

As to `C=CCC1Oc2ccc(OC(=O)CCCC(=O)N(CC)CC)c(OC)c2-c2ccc3c(c21)C(C)=CC(C)(C)N3` (stereo not shown) [Example 437], the Ki came out at 449 nM in assay [1] (setting [3]) and 0.97 nM in assay [2] (setting [4]).

Consider `C=CCC1Oc2ccc(OC(=O)CCCC(=O)N(C)C)c(OC)c2-c2ccc3c(c21)C(C)=CC(C)(C)N3` (stereo not shown) [Example 438], for which the Ki stood at 129 nM in assay [1] (setting [3]) and 0.89 nM in assay [2] (setting [4]).

For `C=CCC1Oc2ccc(OC(=O)CCCC(=O)N3CCCCC3)c(OC)c2-c2ccc3c(c21)C(C)=CC(C)(C)N3` (stereo not shown) [Example 439], the Ki was determined as 202 nM in assay [1] (setting [3]) and 1.2 nM in assay [2] (setting [4]).

Take `C=CCC1Oc2ccc(OC(=O)CCCC(=O)N3CCOCC3)c(OC)c2-c2ccc3c(c21)C(C)=CC(C)(C)N3` (stereo not shown) [Example 440]: the Ki in assay [1] (setting [3]) was determined as 390 nM; in assay [2] (setting [4]) it was 0.7 nM.

Consider `COc1c(OC(=O)CCC(=O)N(C)C)ccc2c1-c1ccc3c(c1[C@H]([C@@H]1C=CCC1)O2)C(C)=CC(C)(C)N3` [Example 441, (−)2,5-Dihydro-9-(4-N,N-dimethylamino-4-oxo-butanoyloxy)-10-methoxy-2,2,4-trimethyl-5(S)-(3(S)-1-cyclopenten-3-yl)-1H-[1]benzopyrano[3,4-f]quinoline], for which the figures for the Ki in assay [1] (setting [3]) and in assay [2] (setting [4]) were 328 nM and 0.42 nM, respectively.

On to `C=CCNC(=O)Oc1ccc2c(c1OC)-c1ccc3c(c1C(CC=C)O2)C(C)=CC(C)(C)N3` (stereo not shown) [Example 442, 10-Methoxy-9-(allylaminocarbonyl)oxy-5-(3-propenyl)-2,2,4-trimethyl-1H-2,5-dihydro-[1]benzopyrano[3,4-f]quinoline], for which the Ki in assay [1] stood at 8860 nM; in assay [2], 9.1 nM.

`C=CCC1Oc2ccc(OC(=O)NC3CCCCC3)c(OC)c2-c2ccc3c(c21)C(C)=CC(C)(C)N3` (stereo not shown) [Example 443, 10-Methoxy-9-(cyclohexylaminocarbonyl)-oxy-5-(3-propenyl)-2,2,4-trimethyl-1H-2,5-dihydro-[1]benzopyrano[3,4-f]quinoline]: the Ki in assay [1] is at least 10000 nM; in assay [2], 63.5 nM.

For the compound `COc1c(O)ccc2c1-c1ccc3c(c1C(c1ccsc1)O2)C(C)=CC(C)(C)N3` (stereo not shown) [Example 444, 2,5-Dihydro-9-hydroxy-10-methoxy-2,2,4-trimethyl-5-(3-thienyl)-1H-[1]benzopyrano[3,4-f]quinoline], the inhibition constant (Ki) was determined as 406 nM in assay [1] (setting [3]) and 1.6 nM in assay [2] (setting [4]).

As to `COc1c(O)ccc2c1-c1ccc3c(c1C(Cc1ccc(F)cc1)O2)C(C)=CC(C)(C)N3` (stereo not shown) [Example 445, 2,5-Dihydro-9-hydroxy-10-methoxy-2,2,4-trimethyl-5-(4-(fluorophenyl)methyl)-1H-[1]benzopyrano[3,4-f]quinoline], the Ki in assay [1] (setting [3]) stood at 3470 nM; in assay [2] (setting [4]), 4 nM.

The record behind these values is patent US6506766B1 (Abbott Laboratories, priority 1998, dated 2003).
